Reference: paper PMC7985297 (Communications Biology, 2021)
“And” between values parts separate entries of the source, which are not always exact repeats. Equal entries are not always repeated. “Also recorded” adds a separate entry of the source.

Legend:
[1] = target: T1, human AR NTD (AR1–558) fused to Gal4DBD (Gal4-ARN) (Homo sapiens, UniProt P10275); experiment: AR NTD transactivation assay (Gal4-ARN) in LNCaP cells; format: cell-based; conditions: EPI-002 25 μM, juglone 20 μM, ATRA 10 μM, 24 h
T1 construct: construct encoding the human AR1–558 of the NTD fused to a Gal4DBD (Gal4-ARN); expressed in transfected cells; host or cells: LNCaP
T1 sequence (P10275 1-558): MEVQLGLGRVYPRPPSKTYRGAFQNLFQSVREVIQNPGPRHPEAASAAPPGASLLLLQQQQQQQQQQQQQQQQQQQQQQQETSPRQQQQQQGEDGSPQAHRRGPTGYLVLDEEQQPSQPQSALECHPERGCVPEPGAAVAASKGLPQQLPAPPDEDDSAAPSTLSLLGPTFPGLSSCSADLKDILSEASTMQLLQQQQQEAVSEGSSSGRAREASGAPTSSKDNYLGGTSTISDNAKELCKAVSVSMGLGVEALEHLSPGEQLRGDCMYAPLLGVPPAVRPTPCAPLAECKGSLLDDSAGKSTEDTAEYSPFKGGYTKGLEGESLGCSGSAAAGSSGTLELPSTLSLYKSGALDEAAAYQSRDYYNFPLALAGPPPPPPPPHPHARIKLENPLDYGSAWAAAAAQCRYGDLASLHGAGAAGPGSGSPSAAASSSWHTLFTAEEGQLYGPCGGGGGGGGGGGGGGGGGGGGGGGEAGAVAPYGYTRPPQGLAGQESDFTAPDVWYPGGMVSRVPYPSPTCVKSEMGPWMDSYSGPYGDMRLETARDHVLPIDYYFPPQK
From the text: The remaining putative Pin1-binding sites are within the intrinsically disordered AR NTD that contains transcription activation units, Tau-1 and Tau-5, to mediate androgen-dependent and androgen-independent transactivation, respectively[5],[30]. The loss of AR-LBD shifts the location of transcriptional activity from Tau-1 with androgen, to Tau-5 in the absence of LBD[30].
Error bars show the mean ± s.e.m. *P < 0.05, **P < 0.01, ***P < 0.001; ns not significant.

LN95-D3 cells = experiment: Cell cycle analysis by flow cytometry, LN95-D3 subline; format: cell-based, human; conditions: LN95-D3, absence of androgen, 48 h
DU145 cells = experiment: BrdU incorporation assay, DU145; format: cell-based, human; conditions: ATRA 10 µM
Procedure: Cells were treated with the inhibitors and stimulated with 1 nM of R1881 (+) or vehicle (−) for 24 to 72 h. Each data point represents the average from an independent experiment where the error bars show the mean ± s.e.m.
BrdU incorporation was determined with the colorimetric BrdU ELISA kit (Roche Diagnostics), according to the manufacturer’s protocol. In brief, cells were seeded in 96-well plates (LNCaP, 5000/well; LN95, 8000/well; PC-3 and DU145, 4000/wells) in media with reduced serum (0.5–1%). On the following day, cells were pre-treated with test compounds for 1 h and then incubated with 0.1 nM of R1881. After the indicated incubation times, cells were labeled with 10 μM of BrdU for 2 h and then fixed for the assay.

LNCaP cells = experiment: Senescence-associated β-galactosidase staining, LNCaP; format: cell-based, human; conditions: ATRA 10 µM, 3 days
From the text: Supplementary Figure 6. […] ( a)
Staining of senescence-associated β-galactosidase (SA β-gal) activity in cell lines treated with vehicle
Original magnification ×100.
percentage of β-gal positive cells as means ± s.e.m. from 3 independent experiments, where at least
1,000 cells were scored for each group. (c) Representative Western blot showing the indicated cell […]

[2] = system: Ki-67, PSA and AR in LN95-D3 xenografts; experiment: Immunohistochemistry of LN95-D3 xenografts (Ki-67, PSA, AR); format: in vivo, mice
From the text: Fig. 8 Immunohistochemistry of LN95-D3 xenografts. a Representative images showing the histomorphology and expression of Ki-67, PSA, and AR from harvested tumors. Scale bars represent 100 µm. Statistical analysis for b the percentage of Ki-67-positive tumor cells and for the expression of c PSA and d AR. Error bars represent the mean ± s.d.
Sections were cut from formalin-fixed, paraffin-embedded tumor tissue at a thickness of 5 µm, deparaffinized in xylene, and then rehydrated in alcohols and distilled water. Endogenous peroxidase was blocked by incubating with a 3% hydrogen peroxide solution for 5 min. […] PSA was detected using a monoclonal mouse anti-human PSA antibody concentrate (ER-PR8; Dako). A negative control without the primary antibody was included for each sample on the same slide. Antigen was detected with 3,3-diaminobenzidine (DAB) and hematoxylin was used for counterstaining. Images were captured on an Axio Imager M2 microscope (Zeiss) at ×200 magnification. The percentage of Ki-67-positive cells was determined with ImageJ using the Cell Counter plugin. At least 1000 cells were scored from three images of representative tumors for each treatment group. The intensity of DAB staining for PSA was quantified by ImageJ using color deconvolution and measuring the mean gray value for the DAB image, where optical density = log(max intensity/mean intensity), and a max intensity of 255 for an 8-bit image.

[3] = system: Pin1, Cyclin D1, Skp2 and AR in LN95-D3 tumors; experiment: Western blot of harvested LN95-D3 xenograft tumors (Pin1, Cyclin D1, Skp2, AR); format: in vivo, mice; conditions: ATRA pellets compared to placebo
Procedure: Scale bars represent 5 mm (f) western blot analysis showing the expression of Pin1, Cyclin D1, Skp2, and AR from representative tumors. Quantification of the data is shown for g Pin1 and h Skp2, where the error bars represent the mean ± s.e.m.
All experiments involving animals conform to the relevant regulatory and ethical standards and were approved by the University of British Columbia Animal Care Committee (A18-0077). Metacam (1 mg/kg, 0.05 mL/10 g of body weight) was administered subcutaneously prior to any surgery. Animals were anesthetized with isoflurane and euthanized by CO2. Six–eight-week-old male (NOD-scid IL2Rgamma^null) mice were maintained in the Animal Care Facility at the British Columbia Cancer Research Centre. Mice were castrated 2 weeks before they were subcutaneously inoculated in the right flank with two million LN95-D3 cells in a 1:1 volume of matrigel (Corning Discovery Labware, Corning, NY). […] Tumors were excised 1 day after the last dose and prepared for western blot analysis and immunohistochemistry.

LN95-D3 xenografts = experiment: Growth of LN95-D3 CRPC xenografts in castrated male NSG mice; format: in vivo; conditions: for Tumor volume, individual animals (Fig. 7b): ATRA 5mg, in mm³ (unit assumed)

O=C1C=CC(=O)c2c(O)cccc21 [juglone]
effect on IL-6-induced transactivation of AR NTD (Gal4-ARN) ([1]; IL-6 50 ng/mL): only inhibited IL-6-induced transactivation
effect on forskolin-induced transactivation of AR NTD (Gal4-ARN) ([1]; forskolin 25 μM): only inhibited IL-6-induced transactivation

CC1=C(/C=C/C(C)=C/C=C/C(C)=C/C(=O)O)C(C)(C)CCC1 [ATRA, all-trans retinoic acid]
effect on cell cycle distribution (LN95-D3 cells): reduced the S phase and increased the G1 population
effect on proliferation of DU145 cells (DU145 cells): did not impact the proliferation of either PC-3 or DU145 cells
BrdU incorporation, DU145 (Fig. 4d) (DU145 cells; − R1881, ENZ 10 µM, EPI-002 25 µM, JUG 20 µM): 0.607 and 0.932 and 1.111 and 0.945
effect on percentage of SA β-gal-positive cells (LNCaP cells): significantly increased the percentage of SA β-gal-positive cells for LNCaP and LN95 cells
effect on number of Ki-67-positive tumor cells ([2]; LN95-D3 xenografts): decreased the number of Ki-67-positive tumor cells in xenografts
levels of AR protein in xenografts (IHC) ([2]; LN95-D3 xenografts): decreased slightly
percentage of Ki-67-positive tumor cells (Fig. 8b) ([2]; LN95-D3 xenografts, ATRA 5 mg pellet, EPI-7170 30 mg/kg/d, one value per tumor, listed as CMC ATRA): 8.32% and 15.81% and 16.91%
effect on PSA expression in xenografts (IHC) ([2]; compared to the control): decreased
Pin1 (and cyclin D1) levels in xenografts [3]: decrease in Pin1 levels; also recorded: decreased levels of Pin1 and its target cyclin D1
tumor growth after 21 days of treatment (LN95-D3 xenografts; castrated mice, ATRA 5 mg 21-day release pellet, EPI-7170 30 mg/kg daily oral, relative to vehicle/placebo-control): significantly reduced
growth of LN95-D3 tumors, pilot study (LN95-D3 xenografts; mice bearing ATRA slow-release pellets compared to placebo): markedly reduced
Tumor volume, individual animals (Fig. 7b) (LN95-D3 xenografts; treatment duration 0 days): 24.32 and 14.61 and 31.83 and 56.34 and 20.55 and 20.28 and 50.07 and 32.48
Tumor volume, individual animals (Fig. 7b) (LN95-D3 xenografts; treatment duration 3 days): 55.84 and 24.48 and 48.26 and 128.17 and 47.08 and 28.39 and 67.63 and 51.78
Tumor volume, individual animals (Fig. 7b) (LN95-D3 xenografts; treatment duration 6 days): 83.34 and 43.04 and 71.44 and 190.56 and 74.31 and 35.31 and 102.14 and 93.49
Tumor volume, individual animals (Fig. 7b) (LN95-D3 xenografts; treatment duration 9 days): 133.91 and 53.07 and 85.22 and 295.56 and 122.11 and 47.93 and 142.91 and 132.75
Tumor volume, individual animals (Fig. 7b) (LN95-D3 xenografts; treatment duration 12 days): 206.68 and 57.46 and 89.96 and 435.8 and 154.08 and 63.14 and 159.59 and 153.66
Tumor volume, individual animals (Fig. 7b) (LN95-D3 xenografts; treatment duration 15 days): 291.35 and 84.16 and 118.21 and 658.17 and 325.4 and 102.18 and 255.62 and 266.01
Tumor volume, individual animals (Fig. 7b) (LN95-D3 xenografts; treatment duration 18 days): 379.83 and 117.24 and 202.18 and 871.57 and 503.37 and 170.47 and 377.34 and 331.83
Tumor volume, individual animals (Fig. 7b) (LN95-D3 xenografts; treatment duration 21 days): 564.91 and 139.55 and 232.06 and 1102.95 and 649.08 and 196.67 and 421.71 and 345.48
